Assay results as given in patent US9732075B2, “Benzimidazole-proline derivatives” (IDORSIA PHARMACEUTICALS LTD, priority 2012, dated 2017).

What was measured:
[1] = target: human orexin-1 receptor (Homo sapiens (Human), UniProt O43613); assay: In vitro assay: intracellular calcium measurements (FLIPR), antagonistic activity; format: cell-based; conditions: CHO cells expressing human orexin-1 receptor, orexin-A agonist, geometric mean, read-out: IC50 Ox1
Outline: (§1)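 Orexin-A-evoked calcium rise (3 nM final, roughly EC70) was recorded with fluo-4 in recombinant CHO cells, human receptor subtype 1 or 2.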

[2] = target: human orexin-2 receptor (Homo sapiens (Human), UniProt O43614); assay: as above; format: cell-based; conditions: CHO cells expressing human orexin-2 receptor, orexin-A agonist, geometric mean, read-out: IC50 Ox2
Outline: as §1

Sequence of human orexin-2 receptor (O43614 whole entry): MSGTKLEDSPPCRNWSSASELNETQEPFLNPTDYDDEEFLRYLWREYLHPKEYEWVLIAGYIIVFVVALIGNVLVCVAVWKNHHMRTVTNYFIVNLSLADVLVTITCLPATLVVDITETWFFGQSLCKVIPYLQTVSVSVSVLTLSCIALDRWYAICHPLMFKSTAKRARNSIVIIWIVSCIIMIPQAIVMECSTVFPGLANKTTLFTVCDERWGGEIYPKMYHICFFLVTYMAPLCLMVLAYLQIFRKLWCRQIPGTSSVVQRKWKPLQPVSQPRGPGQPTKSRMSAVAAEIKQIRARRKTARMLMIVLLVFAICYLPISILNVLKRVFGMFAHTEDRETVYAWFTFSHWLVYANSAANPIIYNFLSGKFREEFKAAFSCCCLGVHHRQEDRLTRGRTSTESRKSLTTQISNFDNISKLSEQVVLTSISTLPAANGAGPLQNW
Sequence of human orexin-1 receptor (O43613 whole entry): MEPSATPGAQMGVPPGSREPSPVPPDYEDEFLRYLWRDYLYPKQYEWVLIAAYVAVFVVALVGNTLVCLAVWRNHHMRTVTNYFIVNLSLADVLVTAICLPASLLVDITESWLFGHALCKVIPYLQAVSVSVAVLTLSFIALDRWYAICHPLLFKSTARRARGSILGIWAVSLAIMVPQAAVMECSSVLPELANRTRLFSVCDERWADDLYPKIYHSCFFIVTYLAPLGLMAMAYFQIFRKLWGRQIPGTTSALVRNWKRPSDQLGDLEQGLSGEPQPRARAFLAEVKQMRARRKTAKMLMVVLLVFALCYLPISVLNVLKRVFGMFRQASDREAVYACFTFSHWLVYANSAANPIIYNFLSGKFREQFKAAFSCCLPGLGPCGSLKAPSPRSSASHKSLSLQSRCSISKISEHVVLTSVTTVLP

Structure (SMILES) | IC50 [1] [nM] | IC50 [2] [nM]
C=C1C[C@@H](c2nc3cc(Cl)c(C(F)(F)F)cc3[nH]2)N(C(=O)c2cc(F)ccc2-n2nccn2)C1 [Ex. 6.176] | 58 | 18
Cc1nc(C(=O)N2CCCC2c2nc3c(CO)cccc3[nH]2)c(-c2ccccc2)s1 (stereo not drawn) [Ex. 1.128] | 1480 | 331
C=C1C[C@@H](c2nc3cc(OC)ccc3[nH]2)N(C(=O)c2nc(N(C)C)sc2-c2ccc(C)c(C)c2)C1 [Ex. 6.27] | 5 | 9
CO[C@H]1CN(C(=O)c2cc(C)ccc2-n2nccn2)C(C)(c2nc3c(C)c(Cl)ccc3[nH]2)C1 (stereo partly drawn) [Ex. 3.25] | 5 | 7
COCCn1c([C@]2(C)CCCN2C(=O)c2cc(C)ccc2-c2cccc(OC)c2)nc2cc(C)c(C)cc21 [Ex. 7.53] | 46 | 190
COc1ccc(-c2ccc(F)cc2)c(C(=O)N2CCC[C@@]2(C)c2nc3ccc(Cl)c(C)c3[nH]2)c1F [Ex. 5.299] | 17 | 21
C=C1C[C@@H](c2nc3cc(OC)ccc3[nH]2)N(C(=O)c2nc(C)sc2-c2cccc(Cl)c2Cl)C1 [Ex. 6.23] | 452 | 67
Cc1nc(C(=O)N2C[C@H](F)C[C@H]2c2nc3c(C)cccc3[nH]2)c(-c2cccc(Cl)c2)s1 [Ex. 2.9] | 17 | 18
CSc1cccc2nc([C@@H]3CCCN3C(=O)c3cncnc3-c3ccc(Br)c(Cl)c3)[nH]c12 [Ex. 1.84] | 14 | 20
Cc1ccc(-c2ccccn2)c(C(=O)N2CC[C@H](C)[C@H]2c2nc3cc(Cl)c(C)cc3[nH]2)c1 [Ex. 4.102] | 10 | 103
Cc1nc(C(=O)N2CC[C@H](C)[C@H]2c2nc3cc(C(F)(F)F)ccc3[nH]2)c(-c2cccc(Cl)c2)s1 [Ex. 4.9] | 2 | 2780
COc1cc2nc([C@]3(C)CCCN3C(=O)c3nc(C)ccc3-n3nccn3)[nH]c2cc1OC [Ex. 5.85] | 316 | 114
COc1cccc(-c2ccc(C)cc2C(=O)N2CCC[C@@]2(C)c2nc3cc(C(F)(F)F)ccc3[nH]2)c1 [Ex. 5.188] | 23 | 119
Cc1ccc(-c2ccc(F)cc2)c(C(=O)N2CCC[C@@]2(C)c2nc3cc(C(F)(F)F)c(Cl)cc3[nH]2)c1 [Ex. 5.152] | 24 | 51
C=C1CN(C(=O)c2nc(C)sc2-c2ccc(C)c(C)c2)C(C)(c2nc3cc(OC)ccc3[nH]2)C1 (racemic) [Ex. 6.145] | 21 | 75
Cc1ccc(-n2nccn2)c(C(=O)N2CCC[C@@]2(C)c2nc3c(C)cccc3[nH]2)c1 [Ex. 5.6] | 32 | 59
COc1ccc2nc([C@@H]3C[C@@H](OC)CN3C(=O)c3cc(C)c(C)cc3-n3nccn3)[nH]c2c1 [Ex. 3.22] | 576 | 9
COc1ccc2nc([C@@H]3CCCN3C(=O)c3c(C)cccc3-n3nccn3)[nH]c2c1 [Ex. 1.161] | 1450 | 22
C=C1C[C@@H](c2nc3cc(OC)ccc3[nH]2)N(C(=O)c2nc(C)sc2-c2cc(F)cc(F)c2)C1 [Ex. 6.37] | 422 | 45
C=C1C[C@@H](c2nc3c(C)c(C)ccc3[nH]2)N(C(=O)c2cc(C)ccc2-n2nccn2)C1 [Ex. 6.63] | 88 | 3
C=C1C[C@@H](c2nc3cc(OC)ccc3[nH]2)N(C(=O)c2nc(C3CC3)sc2-c2cccc(C)c2)C1 [Ex. 6.26] | 26 | 24
Cc1ccc(-c2ccccn2)c(C(=O)N2CC[C@H](C)[C@H]2c2nc3c(C)c(Cl)ccc3[nH]2)c1 [Ex. 4.161] | 2 | 191
Cc1ccc(-c2ccccc2)c(C(=O)N2CCC[C@@]2(C)c2nc3cc(OC(F)(F)F)ccc3[nH]2)c1 [Ex. 5.236] | 26 | 173
COc1ccc2nc([C@@H]3C[C@@H](OC)CN3C(=O)c3cc(F)ccc3-n3nccn3)[nH]c2c1 [Ex. 3.23] | 3890 | 67
